Where a SMILES comes first, the peptide text is derived from it. Bridges are numbered along the chain shown (N, C = ends). [ ]: non-standard residue; d: D form. The star is where a group is joined. DOTA = O=C(O)CN1CCN(CC(=O)O)CCN(CC(=O)*)CCN(CC(=O)O)CC1; Phe(2-Cl) = N[C@@H](Cc1ccccc1Cl)C(=O)O; Hyp = O=C(O)[C@@H]1C[C@@H](O)CN1; 3Pal = N[C@@H](Cc1cccnc1)C(=O)O; Pentanoyl(4-Me) = CC(C)CCC(=O)*; Cit = NC(=O)NCCC[C@H](N)C(=O)O; Dab = NCC[C@H](N)C(=O)O; Nva = CCC[C@H](N)C(=O)O; Pentanoyl = CCCCC(=O)*; Ava = NCCCCC(=O)O
Key:
[1] = molecular target: T1, uPAR-expressing HEC-265 human endometrial adenocarcinoma cells (Homo sapiens, UniProt Q03405); assay: Competitive FACS binding assay; settings: pIC50 category of FACS binding
T1 construct: Cell surface uPAR-expressing HEC-265 human endometrial adenocarcinoma cells; host or cells: HEC-265
T1 sequence (Q03405 23-335): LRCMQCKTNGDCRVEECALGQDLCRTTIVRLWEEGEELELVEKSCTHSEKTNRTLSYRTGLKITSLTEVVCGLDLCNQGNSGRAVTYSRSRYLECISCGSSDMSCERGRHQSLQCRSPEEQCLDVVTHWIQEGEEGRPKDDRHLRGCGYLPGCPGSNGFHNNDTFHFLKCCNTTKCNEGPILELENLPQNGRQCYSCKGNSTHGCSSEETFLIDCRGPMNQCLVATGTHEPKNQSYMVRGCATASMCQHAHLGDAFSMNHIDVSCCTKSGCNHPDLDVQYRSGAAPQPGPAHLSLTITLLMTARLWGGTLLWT
In short: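 HEC-265 cells incubated 1 h at 4 °C with 10 nM biotinylated uPAR peptide tracer plus increasing test compound, then stained with APC-streptavidin on ice. Median APC fluorescence by flow cytometry; 4PL fit gives pIC50.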

human uPAR (uPAR-Fc) = molecular target: T2, human uPAR (uPAR-Fc) (Homo sapiens, UniProt Q03405); assay: Surface plasmon resonance (SPR) assay, single cycle kinetics; type: binding; settings: pKD category for uPAR SPR activity assay; uPAR-Fc on Protein A-Chip, single cycle kinetics, 25°C; read-out: pKD CAT (converted)
T2 construct: comprising amino acids Leu23-Arg303 according to UniProt entry Q03405.1; purchased R&D Systems 10378-UK-100
T2 sequence (Q03405 23-303): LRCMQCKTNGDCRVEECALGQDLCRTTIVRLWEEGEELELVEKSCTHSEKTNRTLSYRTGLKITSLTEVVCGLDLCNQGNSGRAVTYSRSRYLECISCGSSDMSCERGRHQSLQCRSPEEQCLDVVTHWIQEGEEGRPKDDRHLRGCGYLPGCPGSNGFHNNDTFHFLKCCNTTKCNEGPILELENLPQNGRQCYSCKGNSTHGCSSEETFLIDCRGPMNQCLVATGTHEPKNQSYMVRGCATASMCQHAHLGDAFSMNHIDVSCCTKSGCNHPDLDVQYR
In short: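 uPAR-Fc (Leu23-Arg303 extracellular domains, human IgG1 Fc) captured on Protein A chip to ~2000 RU; single-cycle kinetics at 25°C in HEPES running buffer pH 7.4 with 0.1% DMSO. KD from double-referenced sensorgrams fitted to 1:1 Langmuir model, reported as pKD.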

IC50 [1] [nM]	Kd (human uPAR (uPAR-Fc)) [nM]	Compound
≥ 126	> 100	CCCCC(=O)N[C@H]1CCNC(=O)CC[C@@H](C(N)=O)NC(=O)[C@H](CCC)NC(=O)[C@H]([C@@H](C)CC)NC(=O)[C@@H]2C[C@@H](O)CN2C(=O)[C@@H]2CCCN2C(=O)[C@H](Cc2ccccc2)NC(=O)[C@H](Cc2ccc(O)cc2)NC(=O)[C@H](CCC(N)=O)NC(=O)[C@H](CCCNC(=N)N)NC1=O [UPAR-390, Pent-[Dab-Arg-Gln-Tyr-Phe-Pro-Hyp-Ile-Nva-Glu]-NH2] (Pentanoyl-[Dab]RQYFP[Hyp]I[Nva]E-NH2; lactam 1-10)
≤ 10	< 1.58	CCCCC(=O)N[C@H]1CSSC[C@@H](C(N)=O)NC(=O)[C@H](CCC)NC(=O)[C@H]([C@@H](C)CC)NC(=O)[C@@H]2C[C@@H](O)CN2C(=O)[C@@H]2CCCN2C(=O)[C@H](Cc2ccccc2)NC(=O)[C@H](Cc2ccc(O)cc2)NC(=O)[C@H](CCC(N)=O)NC(=O)[C@H](CC(C)C)NC1=O [UPAR-391, Pent-[Cys-Leu-Gln-Tyr-Phe-Pro-Hyp-Ile-Nva-Cys]-NH2] (Pentanoyl-CLQYFP[Hyp]I[Nva]C-NH2; disulfide 1-10)
≥ 126	> 100	CC[C@H](C)[C@@H]1NC(=O)[C@@H](C)NC(=O)[C@@H]2CCCN2C(=O)[C@H](Cc2ccccc2)NC(=O)[C@H](Cc2ccc(O)cc2)NC(=O)[C@H](CCCCNC(=O)CN2CCN(CC(=O)O)CCN(CC(=O)O)CCN(CC(=O)O)CC2)NC(=O)[C@@H](CC(=O)O)NC(=O)[C@@H](NC(=O)[C@H](CC(C)C)NC(=O)[C@H](CC(=O)O)NC(C)=O)CSSC[C@@H](C(N)=O)NC(=O)[C@H](CC(C)C)NC1=O [UPAR-392, Ac-Asp-Leu-[Cys-asp-Lys(DOTA)-Tyr-Phe-Pro-ala-Ile-Leu-Cys]-NH2] (Ac-DLC[dD]K(DOTA)YFP[dA]ILC-NH2; disulfide 3-12)
≤ 10	< 1.58	CC[C@H](C)[C@@H]1NC(=O)[C@@H](C)NC(=O)[C@@H]2CCCN2C(=O)[C@H](Cc2ccccc2)NC(=O)[C@H](Cc2cccnc2)NC(=O)[C@H](CCC(N)=O)NC(=O)[C@H](CCCNC(N)=O)NC(=O)[C@@H](NC(=O)CCC(C)C)CSSC[C@@H](C(N)=O)NC(=O)[C@H](CC(C)C)NC1=O [UPAR-393, iHex-[Cys-Cit-Gln-Mpa-Phe-Pro-ala-Ile-Leu-Cys]-NH2] ({Pentanoyl(4-Me)}-C[Cit]Q[3Pal]FP[dA]ILC-NH2; disulfide 1-10)
≥ 126	> 100	CC[C@H](C)[C@@H]1NC(=O)[C@@H](C)NC(=O)[C@@H]2CCCN2C(=O)[C@H](Cc2ccccc2)NC(=O)[C@H](Cc2ccc(O)cc2)NC(=O)[C@H](CCC(N)=O)NC(=O)[C@H](CCCNC(N)=O)NC(=O)[C@@H](NC(=O)CCCCN)CSSC[C@@H](C(N)=O)NC(=O)[C@H](CC(C)C)NC1=O [UPAR-394, H-Ava-[Cys-Cit-Gln-Tyr-Phe-Pro-ala-Ile-Leu-Cys]-NH2] (H-[Ava]C[Cit]QYFP[dA]ILC-NH2; disulfide 2-11)
≤ 10	< 1.58	CCCCC(=O)N[C@H]1CSSC[C@@H](C(N)=O)NC(=O)[C@H](CCC)NC(=O)[C@H]([C@@H](C)CC)NC(=O)[C@@H]2C[C@@H](O)CN2C(=O)[C@@H]2CCCN2C(=O)[C@H](Cc2ccccc2)NC(=O)[C@H](Cc2ccccc2Cl)NC(=O)[C@H](CCC(N)=O)NC(=O)[C@H](CCCNC(=N)N)NC1=O [UPAR-395, Pent-[Cys-Arg-Gln-Ocf-Phe-Pro-Hyp-Ile-Nva-Cys]-NH2] (Pentanoyl-CRQ[Phe(2-Cl)]FP[Hyp]I[Nva]C-NH2; disulfide 1-10)
≤ 10	< 1.58	CCCCC(=O)N[C@H]1CSSC[C@@H](C(N)=O)NC(=O)[C@H](CC(C)C)NC(=O)[C@H]([C@@H](C)CC)NC(=O)[C@@H]2CCCN2C(=O)[C@@H]2CCCN2C(=O)[C@H](Cc2ccccc2)NC(=O)[C@H](Cc2ccc(O)cc2)NC(=O)[C@H](CCCCNC(=O)CN2CCN(CC(=O)O)CCN(CC(=O)O)CCN(CC(=O)O)CC2)NC(=O)[C@H](CCCNC(N)=O)NC1=O [UPAR-396, Pent-[Cys-Cit-Lys(DOTA)-Tyr-Phe-Pro-Pro-Ile-Leu-Cys]-NH2] (Pentanoyl-C[Cit]K(DOTA)YFPPILC-NH2; disulfide 1-10)

From patent EP4610269A1, “UROKINASE PLASMINOGEN ACTIVATOR SURFACE RECEPTOR (UPAR) LIGANDS FOR DIAGNOSTIC OR THERAPEUTIC USE” (3B Pharmaceuticals GmbH, priority 2024, dated 2025)
